From PubChem BioAssay (NCI)
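Assay format: 96-well plates, 48-hour exposure. At the TGI there is no net growth.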

Assays:
Assay in all cases: NCI tumour cell line growth inhibition, 48 h
786-0 renal = tested on: 786-0 renal
A498 renal = tested on: A498 renal
A549 NSCLC = tested on: A549 NSCLC
ACHN renal = tested on: ACHN renal
BT-549 breast = tested on: BT-549 breast
CAKI-1 renal = tested on: CAKI-1 renal
CCRF-CEM leukemia = tested on: CCRF-CEM leukemia
COLO 205 colon = tested on: COLO 205 colon
DU-145 prostate = tested on: DU-145 prostate
EKVX NSCLC = tested on: EKVX NSCLC
HCC-2998 colon = tested on: HCC-2998 colon
HCT-116 colon = tested on: HCT-116 colon
HCT-15 colon = tested on: HCT-15 colon
HL-60(TB) leukemia = tested on: HL-60(TB) leukemia
HOP-62 NSCLC = tested on: HOP-62 NSCLC
HOP-92 NSCLC = tested on: HOP-92 NSCLC
HS 578T breast = tested on: HS 578T breast
HT29 colon = tested on: HT29 colon
IGROV1 ovarian = tested on: IGROV1 ovarian
K-562 leukemia = tested on: K-562 leukemia
KM12 colon = tested on: KM12 colon
LOX IMVI melanoma = tested on: LOX IMVI melanoma
M14 melanoma = tested on: M14 melanoma
MALME-3M melanoma = tested on: MALME-3M melanoma
MCF7 breast = tested on: MCF7 breast
MDA-MB-231 breast = tested on: MDA-MB-231 breast
MDA-MB-435 = tested on: MDA-MB-435
MDA-N = tested on: MDA-N
MOLT-4 leukemia = tested on: MOLT-4 leukemia
NCI-H226 lung = tested on: NCI-H226 lung
NCI-H23 lung = tested on: NCI-H23 lung
NCI-H460 lung = tested on: NCI-H460 lung
NCI-H522 lung = tested on: NCI-H522 lung
NCI/ADR-RES ovarian = tested on: NCI/ADR-RES ovarian
OVCAR-3 ovarian = tested on: OVCAR-3 ovarian
OVCAR-4 ovarian = tested on: OVCAR-4 ovarian
OVCAR-5 ovarian = tested on: OVCAR-5 ovarian
OVCAR-8 ovarian = tested on: OVCAR-8 ovarian
PC-3 prostate = tested on: PC-3 prostate
RPMI-8226 leukemia = tested on: RPMI-8226 leukemia
RXF 393 renal = tested on: RXF 393 renal
SF-268 CNS = tested on: SF-268 CNS
SF-295 CNS = tested on: SF-295 CNS
SF-539 CNS = tested on: SF-539 CNS
SK-MEL-2 melanoma = tested on: SK-MEL-2 melanoma
SK-MEL-28 melanoma = tested on: SK-MEL-28 melanoma
SK-MEL-5 melanoma = tested on: SK-MEL-5 melanoma
SK-OV-3 ovarian = tested on: SK-OV-3 ovarian
SN12C renal = tested on: SN12C renal
SNB-19 CNS = tested on: SNB-19 CNS
SNB-75 CNS = tested on: SNB-75 CNS
SR leukemia = tested on: SR leukemia
SW-620 colon = tested on: SW-620 colon
T-47D breast = tested on: T-47D breast
TK-10 renal = tested on: TK-10 renal
U251 CNS = tested on: U251 CNS
UACC-257 melanoma = tested on: UACC-257 melanoma
UACC-62 melanoma = tested on: UACC-62 melanoma
UO-31 renal = tested on: UO-31 renal

SMILES: COc1ccc2nc3cc([N+](=O)[O-])ccc3c(NNc3ccc([N+](=O)[O-])cc3)c2c1
- TGI (786-0 renal): > 100 µM
- TGI (A498 renal): 0.382 µM
- TGI (A549 NSCLC): > 100 µM
- TGI (ACHN renal): > 100 µM
- TGI (BT-549 breast): > 100 µM
- TGI (CAKI-1 renal): 29.6 µM
- TGI (CCRF-CEM leukemia): 98.6 µM
- TGI (COLO 205 colon): > 100 µM
- TGI (DU-145 prostate): > 100 µM
- TGI (EKVX NSCLC): > 100 µM
- TGI (HCC-2998 colon): 69.4 µM
- TGI (HCT-116 colon): > 100 µM
- TGI (HCT-15 colon): > 100 µM
- TGI (HL-60(TB) leukemia): 54.2 µM
- TGI (HOP-62 NSCLC): > 100 µM
- TGI (HOP-92 NSCLC): 67.7 µM
- TGI (HS 578T breast): > 100 µM
- TGI (HT29 colon): > 63.9 µM
- TGI (IGROV1 ovarian): > 59 µM
- TGI (K-562 leukemia): > 100 µM
- TGI (KM12 colon): > 100 µM
- TGI (LOX IMVI melanoma): > 100 µM
- TGI (M14 melanoma): > 100 µM
- TGI (MALME-3M melanoma): > 92.5 µM
- TGI (MCF7 breast): > 100 µM
- TGI (MDA-MB-231 breast): > 91.6 µM
- TGI (MDA-MB-435): > 100 µM
- TGI (MDA-N): > 100 µM
- TGI (MOLT-4 leukemia): > 100 µM
- TGI (NCI-H226 lung): > 56.4 µM
- TGI (NCI-H23 lung): > 100 µM
- TGI (NCI-H460 lung): > 59.7 µM
- TGI (NCI-H522 lung): > 100 µM
- TGI (NCI/ADR-RES ovarian): > 100 µM
- TGI (OVCAR-3 ovarian): > 100 µM
- TGI (OVCAR-4 ovarian): > 100 µM
- TGI (OVCAR-5 ovarian): > 100 µM
- TGI (OVCAR-8 ovarian): > 100 µM
- TGI (PC-3 prostate): > 100 µM
- TGI (RPMI-8226 leukemia): > 71.5 µM
- TGI (RXF 393 renal): > 100 µM
- TGI (SF-268 CNS): > 100 µM
- TGI (SF-295 CNS): > 100 µM
- TGI (SF-539 CNS): > 100 µM
- TGI (SK-MEL-2 melanoma): > 96.2 µM
- TGI (SK-MEL-28 melanoma): > 100 µM
- TGI (SK-MEL-5 melanoma): 61.4 µM
- TGI (SK-OV-3 ovarian): > 100 µM
- TGI (SN12C renal): > 100 µM
- TGI (SNB-19 CNS): > 76.8 µM
- TGI (SNB-75 CNS): > 100 µM
- TGI (SR leukemia): > 69 µM
- TGI (SW-620 colon): > 64.7 µM
- TGI (T-47D breast): > 100 µM
- TGI (TK-10 renal): > 24.2 µM
- TGI (U251 CNS): > 93.7 µM
- TGI (UACC-257 melanoma): 16 µM
- TGI (UACC-62 melanoma): > 50.7 µM
- TGI (UO-31 renal): > 100 µM

SMILES: N#CC(c1ccccc1)N(CCc1ccccc1)C(=O)c1ccc(C(=O)N(CCc2ccccc2)C(C#N)c2ccccc2)cc1 (stereo not drawn)
- TGI (786-0 renal): 56.5 µM
- TGI (A498 renal): 75.3 µM
- TGI (A549 NSCLC): > 100 µM
- TGI (ACHN renal): 73.5 µM
- TGI (BT-549 breast): 44.3 µM
- TGI (CAKI-1 renal): > 100 µM
- TGI (CCRF-CEM leukemia): 71.5 µM
- TGI (COLO 205 colon): 55.6 µM
- TGI (DU-145 prostate): > 100 µM
- TGI (EKVX NSCLC): > 100 µM
- TGI (HCC-2998 colon): 29.1 µM
- TGI (HCT-116 colon): 28.4 µM
- TGI (HCT-15 colon): 37.8 µM
- TGI (HL-60(TB) leukemia): > 100 µM
- TGI (HOP-92 NSCLC): 28.1 µM
- TGI (HS 578T breast): 39.1 µM
- TGI (HT29 colon): 38.6 µM
- TGI (IGROV1 ovarian): 57 µM
- TGI (K-562 leukemia): 67.4 µM
- TGI (KM12 colon): > 100 µM
- TGI (LOX IMVI melanoma): 37 µM
- TGI (M14 melanoma): 79 µM
- TGI (MALME-3M melanoma): 39.3 µM
- TGI (MCF7 breast): > 100 µM
- TGI (MDA-MB-231 breast): 76.1 µM
- TGI (MDA-MB-435): 58 µM
- TGI (MDA-N): 65.1 µM
- TGI (NCI-H226 lung): 33.8 µM
- TGI (NCI-H23 lung): 77.6 µM
- TGI (NCI-H460 lung): 37 µM
- TGI (NCI/ADR-RES ovarian): 47.3 µM
- TGI (OVCAR-3 ovarian): 47 µM
- TGI (OVCAR-4 ovarian): 64 µM
- TGI (OVCAR-5 ovarian): 78.7 µM
- TGI (OVCAR-8 ovarian): 34.6 µM
- TGI (PC-3 prostate): > 100 µM
- TGI (RXF 393 renal): 61.3 µM
- TGI (SF-268 CNS): 55.2 µM
- TGI (SF-295 CNS): 51.9 µM
- TGI (SF-539 CNS): 42.6 µM
- TGI (SK-MEL-2 melanoma): 48.1 µM
- TGI (SK-MEL-28 melanoma): 51.3 µM
- TGI (SK-MEL-5 melanoma): 27.2 µM
- TGI (SK-OV-3 ovarian): > 100 µM
- TGI (SN12C renal): 38.3 µM
- TGI (SNB-19 CNS): > 100 µM
- TGI (SNB-75 CNS): 45.8 µM
- TGI (SW-620 colon): 58.7 µM
- TGI (T-47D breast): 61.3 µM
- TGI (TK-10 renal): 29.8 µM
- TGI (U251 CNS): 64.6 µM
- TGI (UACC-257 melanoma): 35.3 µM
- TGI (UACC-62 melanoma): 35.6 µM
- TGI (UO-31 renal): 63.8 µM
